This is an account of results in PubChem BioAssay AID1259407 (Chemical Carcinogenesis Research Information System (CCRIS), 2018).

In this series the test system is CCRIS mutagenicity, Ames/micronucleus/aberration tests. Put plainly: CCRIS mutagenicity studies.
The mark [1] stands for this setting: Test System: AMES SALMONELLA TYPHIMURIUM, Strain/Indicator: TA98, Metabolic Activation: NONE, Method: STANDARD PLATE.
The mark [2] stands for this setting: Test System: AMES SALMONELLA TYPHIMURIUM, Strain/Indicator: TA100, Metabolic Activation: NONE, Method: STANDARD PLATE.

Active and inactive are the calls of the source. No rule for the calls is given here.

For `CSc1ccc(Cl)cc1`, the mutagenic call is “inactive; negative” under setting [1]; “inactive; negative” (Test System: AMES SALMONELLA TYPHIMURIUM, Strain/Indicator: TA98, Metabolic Activation: RAT, LIVER, S-9, AROCLOR 1254, Method: STANDARD PLATE); “inactive; negative” under setting [2]; “inactive; negative” (Test System: AMES SALMONELLA TYPHIMURIUM, Strain/Indicator: TA100, Metabolic Activation: RAT, LIVER, S-9, AROCLOR 1254, Method: STANDARD PLATE); “inactive; negative” (Test System: AMES SALMONELLA TYPHIMURIUM, Strain/Indicator: TA1535, Metabolic Activation: NONE, Method: STANDARD PLATE); “inactive; negative” (Test System: AMES SALMONELLA TYPHIMURIUM, Strain/Indicator: TA1535, Metabolic Activation: RAT, LIVER, S-9, AROCLOR 1254, Method: STANDARD PLATE). For the same molecule, the mutagenic call by setting is: (Test System: AMES SALMONELLA TYPHIMURIUM, Strain/Indicator: TA1537, Metabolic Activation: NONE, Method: STANDARD PLATE) “inactive; negative”; (Test System: AMES SALMONELLA TYPHIMURIUM, Strain/Indicator: TA1537, Metabolic Activation: RAT, LIVER, S-9, AROCLOR 1254, Method: STANDARD PLATE) “inactive; negative”; (Test System: AMES SALMONELLA TYPHIMURIUM, Strain/Indicator: TA1538, Metabolic Activation: NONE, Method: STANDARD PLATE) “inactive; negative”; (Test System: AMES SALMONELLA TYPHIMURIUM, Strain/Indicator: TA1538, Metabolic Activation: RAT, LIVER, S-9, AROCLOR 1254, Method: STANDARD PLATE) “inactive; negative”.
With `c1ccc(-c2ccnc3c2ccc2c(-c4ccccc4)ccnc23)cc1`, the mutagenic call was “active; positive” (Test System: Mouse lymphoma, Strain/Indicator: L5178Y (tk+/tk-), Metabolic Activation: None, Method: Suspension/plate) and “equivocal” (Test System: Mouse lymphoma, Strain/Indicator: L5178Y (tk+/tk-), Metabolic Activation: Rat, Liver, S-9, Aroclor 1254, Method: Suspension/plate).
On to `CC(C)Nc1ccc(Nc2ccccc2)cc1`, for which the mutagenic call (Test System: AMES SALMONELLA TYPHIMURIUM, Strain/Indicator: TA98, Metabolic Activation: HAMSTER, LIVER, S-9, AROCLOR 1254 (10%), Method: PREINCUBATION) was “inactive; negative”; the mutagenic call (Test System: AMES SALMONELLA TYPHIMURIUM, Strain/Indicator: TA98, Metabolic Activation: NONE, Method: PREINCUBATION) is “inactive; negative”; the mutagenic call under setting [1] was “inactive; negative”; the mutagenic call (Test System: AMES SALMONELLA TYPHIMURIUM, Strain/Indicator: TA98, Metabolic Activation: RAT LIVER S-9, PHENOBARBITAL AND BETA-NAPHTHOFLAVONE, Method: PREINCUBATION) was “inactive; negative”; the mutagenic call (Test System: AMES SALMONELLA TYPHIMURIUM, Strain/Indicator: TA98, Metabolic Activation: RAT, LIVER, S-9, AROCLOR 1254 (10%), Method: PREINCUBATION) was “inactive; negative”; the mutagenic call (Test System: AMES SALMONELLA TYPHIMURIUM, Strain/Indicator: TA98, Metabolic Activation: S-9, Method: STANDARD PLATE) is “inactive; negative”. Moreover, the mutagenic call runs as follows: (Test System: AMES SALMONELLA TYPHIMURIUM, Strain/Indicator: TA100, Metabolic Activation: HAMSTER, LIVER, S-9, AROCLOR 1254 (10%), Method: PREINCUBATION) “inactive; negative”; (Test System: AMES SALMONELLA TYPHIMURIUM, Strain/Indicator: TA100, Metabolic Activation: NONE, Method: PREINCUBATION) “inactive; negative”; under setting [2], “inactive; negative”; (Test System: AMES SALMONELLA TYPHIMURIUM, Strain/Indicator: TA100, Metabolic Activation: RAT LIVER S-9, PHENOBARBITAL AND BETA-NAPHTHOFLAVONE, Method: PREINCUBATION) “inactive; negative”; (Test System: AMES SALMONELLA TYPHIMURIUM, Strain/Indicator: TA100, Metabolic Activation: RAT, LIVER, S-9, AROCLOR 1254 (10%), Method: PREINCUBATION) “inactive; negative”; (Test System: AMES SALMONELLA TYPHIMURIUM, Strain/Indicator: TA100, Metabolic Activation: S-9, Method: STANDARD PLATE) “inactive; negative”. In addition, the mutagenic call by setting is: (Test System: AMES SALMONELLA TYPHIMURIUM, Strain/Indicator: TA1535, Metabolic Activation: HAMSTER, LIVER, S-9, AROCLOR 1254 (10%), Method: PREINCUBATION) “inactive; negative”; (Test System: AMES SALMONELLA TYPHIMURIUM, Strain/Indicator: TA1535, Metabolic Activation: NONE, Method: PREINCUBATION) “inactive; negative”; (Test System: AMES SALMONELLA TYPHIMURIUM, Strain/Indicator: TA1535, Metabolic Activation: RAT LIVER S-9, PHENOBARBITAL AND BETA-NAPHTHOFLAVONE, Method: PREINCUBATION) “inactive; negative”; (Test System: AMES SALMONELLA TYPHIMURIUM, Strain/Indicator: TA1535, Metabolic Activation: RAT, LIVER, S-9, AROCLOR 1254 (10%), Method: PREINCUBATION) “inactive; negative”; (Test System: AMES SALMONELLA TYPHIMURIUM, Strain/Indicator: TA1537, Metabolic Activation: HAMSTER, LIVER, S-9, AROCLOR 1254 (10%), Method: PREINCUBATION) “inactive; negative”; (Test System: AMES SALMONELLA TYPHIMURIUM, Strain/Indicator: TA1537, Metabolic Activation: NONE, Method: PREINCUBATION) “inactive; negative”. Further, the mutagenic call by setting is: (Test System: AMES SALMONELLA TYPHIMURIUM, Strain/Indicator: TA1537, Metabolic Activation: RAT LIVER S-9, PHENOBARBITAL AND BETA-NAPHTHOFLAVONE, Method: PREINCUBATION) “inactive; negative”; (Test System: AMES SALMONELLA TYPHIMURIUM, Strain/Indicator: TA1537, Metabolic Activation: RAT, LIVER, S-9, AROCLOR 1254 (10%), Method: PREINCUBATION) “inactive; negative”; (Test System: AMES SALMONELLA TYPHIMURIUM, Strain/Indicator: TA1538, Metabolic Activation: NONE, Method: PREINCUBATION) “inactive; negative”; (Test System: AMES SALMONELLA TYPHIMURIUM, Strain/Indicator: TA1538, Metabolic Activation: RAT LIVER S-9, PHENOBARBITAL AND BETA-NAPHTHOFLAVONE, Method: PREINCUBATION) “inactive; negative”; (Test System: E.COLI, Strain/Indicator: WP2UVRA, Metabolic Activation: NONE, Method: PREINCUBATION) “inactive; negative”; (Test System: E.COLI, Strain/Indicator: WP2UVRA, Metabolic Activation: RAT LIVER S-9, PHENOBARBITAL AND BETA-NAPHTHOFLAVONE, Method: PREINCUBATION) “inactive; negative”.
